Measured values taken from BindingDB's records for doi:10.7270/Q2ZW1JC6 (Nmmlsc, 2016).

The molecules below were run against Ras-related protein Rab-2A (Canis lupus familiaris, UniProt P61105) (assay: Rab2A fluorescent GTP competition potency – biochemical, pyrazoline series, Bodipy-FL-GTP, flow cytometry, multiplex, SAR follow-up (AID 2045)). Settings: not given.
Chain of Ras-related protein Rab-2A (P61105 whole entry): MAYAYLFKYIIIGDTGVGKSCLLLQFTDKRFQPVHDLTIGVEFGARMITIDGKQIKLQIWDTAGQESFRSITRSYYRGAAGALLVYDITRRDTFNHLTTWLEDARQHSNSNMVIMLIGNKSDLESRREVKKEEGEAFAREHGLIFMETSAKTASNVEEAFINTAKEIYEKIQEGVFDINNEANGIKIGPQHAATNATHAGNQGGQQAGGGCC

Structure (SMILES)	EC50 [µM]
COc1ccc(C2CC(c3ccc(Br)cc3)=NN2c2ccccc2Cl)cc1 (stereo not given) [UNM-0000305832]	> 30
COc1ccc(C2CC(c3ccccc3C(F)(F)F)=NN2c2ccc(S(N)(=O)=O)cc2)cc1 (stereo not given) [KUC103474N]	> 30
Brc1ccc(N2N=C(c3ccccc3)CC2c2ccccc2)cc1 (stereo not given)	> 30
CN(C)c1ccc(C2CC(c3ccc(F)cc3)=NN2c2ccccc2)cc1 (stereo not given) [UNM-0000305866]	> 30
COc1ccc(C2CC(c3ccncc3)=NN2c2ccc(S(N)(=O)=O)cc2)cc1 (stereo not given)	> 30
COc1ccc(-c2cc(-c3ccccc3)nn2-c2ccc(S(N)(=O)=O)cc2)cc1 [4-[5-(4-methoxyphenyl)-3-phenylpyrazol-1-yl]benzenesulfonamide]	> 30
COc1ccc(C2CC(c3ccccc3OC)=NN2c2ccc(S(N)(=O)=O)cc2)cc1 (stereo not given)	> 30
COc1ccc(C2CC(C(C)(C)C)=NN2c2ccc(S(N)(=O)=O)cc2)cc1 (stereo not given) [KUC103450N]	> 30
O=[N+]([O-])c1ccc([N+]2=N[C-](c3ccccc3)CC2c2ccc(O)cc2)cc1 (stereo not given) [UNM-0000305838]	> 30
COc1ccc(C2CC(c3ccccc3F)=NN2c2ccc(S(N)(=O)=O)cc2)cc1 (stereo not given) [UNM-0000306110]	> 30
COc1ccc(C2CC(c3ccccc3)=NN2c2ccc(S(N)(=O)=O)cc2)cc1OC (stereo not given) [UNM-0000305823]	> 30
COc1ccc(C2CC(c3cccc(C)c3)=NN2c2ccc(S(N)(=O)=O)cc2)cc1 (stereo not given) [UNM-0000306153]	> 30
COc1ccc(C2=NN(c3ccc(Cl)cc3)C(c3ccccc3F)C2)cc1 (stereo not given) [UNM-0000305863]	> 30
COc1ccc(C2CC(c3ccc(C)cc3)=NN2c2ccc(S(N)(=O)=O)cc2)cc1 (stereo not given)	> 30
COc1ccccc1N1N=C(c2ccccc2)CC1c1ccccc1 (stereo not given) [UNM-0000305855]	> 30
COc1ccc(C2C[C-](c3ccccc3)N=[N+]2c2ccc([N+](=O)[O-])cc2)cc1 (stereo not given) [3-(4-methoxyphenyl)-2-(4-nitrophenyl)-5-phenyl-3,4-dihydropyrazole]	> 30
NS(=O)(=O)c1ccc(N2N=C(c3ccccc3)CC2c2cccc(Br)c2)cc1 (stereo not given) [UNM-0000306147]	> 30
NS(=O)(=O)c1ccc(N2N=C(c3ccccc3)CC2c2cccc(Cl)c2)cc1 (stereo not given) [UNM-0000306161]	> 30
COc1ccc(C2CC(c3cccc(C(F)(F)F)c3)=NN2c2ccc(S(N)(=O)=O)cc2)cc1 (stereo not given)	> 30
COc1ccc(C2CC(c3ccc(Br)cc3)=NN2c2ccc(S(N)(=O)=O)cc2)cc1 (stereo not given) [UNM-0000306138]	> 30
COc1ccc(C2CC(C3CCCCC3)=NN2c2ccc(S(N)(=O)=O)cc2)cc1 (stereo not given) [4-[5-cyclohexyl-3-(4-methoxyphenyl)-3,4-dihydropyrazol-2-yl]benzenesulfonamide]	> 30

Structure (SMILES)	EC50 [µM]
COc1ccc(C2CC(c3ccccc3Cl)=NN2c2ccc(S(N)(=O)=O)cc2)cc1 (stereo not given) [4-[5-(2-chlorophenyl)-3-(4-methoxyphenyl)-3,4-dihydropyrazol-2-yl]benzenesulfonamide]	> 30
NS(=O)(=O)c1ccc(N2N=C(c3ccccc3)CC2c2ccccc2)cc1 (stereo not given) [4-(3,5-diphenyl-3,4-dihydropyrazol-2-yl)benzenesulfonamide]	> 30
Cc1onc(-c2ccccc2)c1-c1ccc(S(N)(=O)=O)cc1	> 30
NS(=O)(=O)c1ccc(N2N=C(c3ccccc3)CC2c2ccccc2Br)cc1 (stereo not given) [4-[3-(2-bromophenyl)-5-phenyl-3,4-dihydropyrazol-2-yl]benzenesulfonamide]	> 30
COc1ccc(C2=NN(c3ccc(Cl)c(Cl)c3)C(c3ccc(OC)cc3)C2)cc1 (stereo not given) [2-(3,4-dichlorophenyl)-3,5-bis(4-methoxyphenyl)-3,4-dihydropyrazole]	> 30
NS(=O)(=O)c1ccc(N2N=C(c3ccccc3)CC2c2ccc(Br)cc2)cc1 (stereo not given) [UNM-0000306160]	> 30
COc1ccc(C2CC(c3ccccc3Br)=NN2c2ccc(S(N)(=O)=O)cc2)cc1 (stereo not given) [UNM-0000306112]	> 30
Fc1ccccc1C1CC(c2ccc(Br)cc2)=NN1c1ccc(Br)cc1 (stereo not given) [2,5-bis(4-bromophenyl)-3-(2-fluorophenyl)-3,4-dihydropyrazole]	> 30
O=[N+]([O-])c1cccc(C2C[C-](c3ccc(F)cc3)N=[N+]2c2ccccc2)c1 (stereo not given) [5-(4-fluorophenyl)-3-(3-nitrophenyl)-2-phenyl-3,4-dihydropyrazole]	> 30
COc1ccc(C2CC(c3ccc(C(F)(F)F)cc3)=NN2c2ccc(S(N)(=O)=O)cc2)cc1 (stereo not given) [4-[3-(4-methoxyphenyl)-5-[4-(trifluoromethyl)phenyl]-3,4-dihydropyrazol-2-yl]benzenesulfonamide]	> 30
CC(=O)Oc1ccc(C2=NN(c3ccccc3)C(c3ccccc3)C2)cc1 (stereo not given)	> 30
COc1ccc(C2=NN(c3ccccc3)C(c3ccc(Cl)cc3)C2)cc1 (stereo not given) [UNM-0000305833]	> 30
COc1ccc(C2CC(c3cccs3)=NN2c2ccc(S(N)(=O)=O)cc2)cc1 (stereo not given) [KUC103438N]	> 30
Cc1ccc(C2CC(c3ccccc3)=NN2c2ccc(S(N)(=O)=O)cc2)cc1 (stereo not given)	> 30
CN(C)c1ccc(C2C[C-](c3ccccc3)N=[N+]2c2ccc([N+](=O)[O-])cc2)cc1 (stereo not given)	> 30
COc1ccc(C2=NN(c3ccccc3F)C(c3ccc(F)cc3)C2)cc1 (stereo not given) [UNM-0000305860]	> 30
Clc1ccc(N2N=C(c3ccccc3)CC2c2ccccc2)cc1 (stereo not given)	> 30
COc1ccc(C2=NN(c3ccccc3)C(c3ccccc3C(F)(F)F)C2)cc1 (stereo not given)	> 30
COc1ccc(C2CC(c3ccsc3)=NN2c2ccc(S(N)(=O)=O)cc2)cc1 (stereo not given) [4-[3-(4-methoxyphenyl)-5-thiophen-3-yl-3,4-dihydropyrazol-2-yl]benzenesulfonamide]	> 30
O=[N+]([O-])c1cccc(C2C[C-](c3ccccc3)N=[N+]2c2ccccc2)c1 (stereo not given) [UNM-0000305857]	> 30
Clc1cccc(N2N=C(c3ccccc3)CC2c2ccccc2)c1 (stereo not given)	> 30

Structure (SMILES)	EC50 [µM]
Cc1cccc(N2N=C(c3ccccc3)CC2c2ccccc2)c1 (stereo not given) [UNM-0000305835]	> 30
COc1ccc(C2CC(c3ccccc3)=NN2c2ccc(C(N)=O)cc2)cc1 (stereo not given) [UNM-0000305870]	> 30
CCc1ccc(C2=NN(c3ccc(S(N)(=O)=O)cc3)C(c3ccc(F)cc3)C2)cc1 (stereo not given)	> 30
CN(C)c1ccc(C2CC(c3ccc(Cl)cc3)=NN2c2ccccc2)cc1 (stereo not given) [UNM-0000305847]	> 30
Cc1cccc(C2CC(c3ccccc3)=NN2c2ccc(S(N)(=O)=O)cc2)c1 (stereo not given)	> 30
COc1ccc(C2CC(c3cccc(OC)c3)=NN2c2ccc(S(N)(=O)=O)cc2)cc1 (stereo not given) [4-[5-(3-methoxyphenyl)-3-(4-methoxyphenyl)-3,4-dihydropyrazol-2-yl]benzenesulfonamide]	> 30
COc1ccc(C2CC(c3ccc(F)cc3)=NN2c2cccc(F)c2)cc1OC (stereo not given)	> 30
COc1ccccc1C1CC(c2ccccc2)=NN1c1ccc(S(N)(=O)=O)cc1 (stereo not given) [4-[3-(2-methoxyphenyl)-5-phenyl-3,4-dihydropyrazol-2-yl]benzenesulfonamide]	> 30
COc1ccc(C2CC(c3ccccc3)=NN2c2ccc(C(=O)O)cc2)cc1 (stereo not given) [UNM-0000306085]	> 30
COc1ccc(C2CC(c3ccc(F)cc3)=NN2c2cc(Cl)ccc2Cl)cc1 (stereo not given) [2-(2,5-dichlorophenyl)-5-(4-fluorophenyl)-3-(4-methoxyphenyl)-3,4-dihydropyrazole]	> 30
O=C(O)c1ccc(N2N=C(c3ccccc3)CC2c2ccccc2)cc1 (stereo not given)	> 30
COc1cccc(C2CC(c3ccccc3)=NN2c2ccc(S(N)(=O)=O)cc2)c1 (stereo not given) [4-[3-(3-methoxyphenyl)-5-phenyl-3,4-dihydropyrazol-2-yl]benzenesulfonamide]	> 30
COc1ccc(C2CC(c3ccc(Cl)cc3)=NN2c2ccccc2)cc1OC (stereo not given) [UNM-0000305858]	> 30
FC(F)(F)c1cccc(N2N=C(c3ccc(Cl)cc3)CC2c2ccccc2Cl)c1 (stereo not given) [UNM-0000305859]	> 30
COc1ccc(C2=NN(c3cccc(F)c3)C(c3ccc(Cl)cc3)C2)cc1 (stereo not given) [3-(4-chlorophenyl)-2-(3-fluorophenyl)-5-(4-methoxyphenyl)-3,4-dihydropyrazole]	> 30
NS(=O)(=O)c1ccc(N2N=C(c3ccccc3)CC2c2ccc(Cl)cc2)cc1 (stereo not given) [4-[3-(4-chlorophenyl)-5-phenyl-3,4-dihydropyrazol-2-yl]benzenesulfonamide]	> 30
COc1ccc(C2=NN(c3ccccc3)C(c3ccc(OC)c(OC)c3C(=O)O)C2)cc1 (stereo not given) [UNM-0000305848]	> 30
Cc1ccccc1[N+]1=N[C-](c2ccccc2)CC1c1cccc([N+](=O)[O-])c1 (stereo not given) [UNM-0000305854]	> 30
COc1ccc(C2CC(c3ccc(N(C)C)cc3)=NN2c2ccc(S(N)(=O)=O)cc2)cc1 (stereo not given) [KUC103422N]	> 30
COc1ccc(C2CC(c3ccccc3)=NN2c2ccc(Cl)c(C(=O)O)c2)cc1 (stereo not given)	> 30

Same assay, conditions: inactive by the depositor's call

Structure (SMILES)	EC50 [µM]
NS(=O)(=O)c1ccc(N2N=C(c3ccc(Cl)cc3)CC2c2ccccc2)cc1 (stereo not given)	0.056
COc1ccc(C2=NN(c3cccc(F)c3)C(c3ccc(OC)cc3)C2)cc1 (stereo not given) [2-(3-fluorophenyl)-3,5-bis(4-methoxyphenyl)-3,4-dihydropyrazole]	1
COc1ccc(C2CC(c3ccc(F)cc3)=NN2c2ccc(S(N)(=O)=O)cc2)cc1 (stereo not given) [4-[5-(4-fluorophenyl)-3-(4-methoxyphenyl)-3,4-dihydropyrazol-2-yl]benzenesulfonamide]	0.015
